Measurements as given in the kinase profiling compilation of Christmann-Franck et al. (2016).

Tests used:
Assay in all cases: Caliper, Mobility shift assay off-chip
SPHK2 (human) = SPHK2 (human) (UniProt Q9NRA0)
TNK1 (human) = TNK1 (human) (UniProt Q13470)
MAPKAPK5 (human) = MAPKAPK5 (human) (UniProt Q8IW41)
NUAK2 (human) = NUAK2 (human) (UniProt Q9H093)
INSR (human) = INSR (human) (UniProt P06213)
CDC7 (human) = CDC7 (human) (UniProt O00311)
HCK (human) = HCK (human) (UniProt P08631)
PLK1 (human) = PLK1 (human) (UniProt P53350)
BMX (human) = BMX (human) (UniProt P51813)
MKNK1 (human) = MKNK1 (human) (UniProt Q9BUB5)
MKNK1 (human), sequence (Q9BUB5 whole entry, looked up): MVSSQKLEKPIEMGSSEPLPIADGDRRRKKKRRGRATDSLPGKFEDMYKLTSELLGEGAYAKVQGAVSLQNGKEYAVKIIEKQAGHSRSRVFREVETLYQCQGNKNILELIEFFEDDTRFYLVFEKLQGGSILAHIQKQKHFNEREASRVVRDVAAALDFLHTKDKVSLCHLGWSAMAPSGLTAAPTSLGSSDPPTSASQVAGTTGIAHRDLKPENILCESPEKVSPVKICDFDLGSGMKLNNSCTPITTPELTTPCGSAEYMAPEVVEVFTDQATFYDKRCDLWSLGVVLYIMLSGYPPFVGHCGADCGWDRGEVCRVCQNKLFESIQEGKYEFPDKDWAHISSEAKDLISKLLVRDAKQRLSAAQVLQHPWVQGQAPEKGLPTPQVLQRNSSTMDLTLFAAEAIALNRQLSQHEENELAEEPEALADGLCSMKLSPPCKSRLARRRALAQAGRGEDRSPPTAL

MARK4 (human) = MARK4 (human) (UniProt Q96L34)
YES1 (human) = YES1 (human) (UniProt P07947)
YES1 (human), sequence (P07947 whole entry, looked up): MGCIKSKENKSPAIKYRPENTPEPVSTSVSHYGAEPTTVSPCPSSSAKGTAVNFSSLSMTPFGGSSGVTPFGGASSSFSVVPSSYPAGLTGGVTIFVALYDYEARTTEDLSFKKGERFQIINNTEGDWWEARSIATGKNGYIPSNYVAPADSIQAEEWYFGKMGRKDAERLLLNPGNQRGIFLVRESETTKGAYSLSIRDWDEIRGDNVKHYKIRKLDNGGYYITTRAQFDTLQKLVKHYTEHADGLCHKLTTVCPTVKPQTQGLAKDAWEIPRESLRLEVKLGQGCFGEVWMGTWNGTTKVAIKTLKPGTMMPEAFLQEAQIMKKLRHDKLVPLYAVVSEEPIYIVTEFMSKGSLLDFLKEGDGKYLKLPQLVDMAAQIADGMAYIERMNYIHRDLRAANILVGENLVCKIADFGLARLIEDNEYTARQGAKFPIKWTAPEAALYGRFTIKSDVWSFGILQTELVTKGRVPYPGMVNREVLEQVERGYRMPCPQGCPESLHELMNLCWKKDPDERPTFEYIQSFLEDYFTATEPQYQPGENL

PAK7 (human) = PAK7 (human) (UniProt Q9P286)
MAPK7 (human) = MAPK7 (human) (UniProt Q13164)
PRKCE (human) = PRKCE (human) (UniProt Q02156)
EPHA5 (human) = EPHA5 (human) (UniProt P54756)
PAK2 (human) = PAK2 (human) (UniProt Q13177)
PAK2 (human), sequence (Q13177 whole entry, looked up): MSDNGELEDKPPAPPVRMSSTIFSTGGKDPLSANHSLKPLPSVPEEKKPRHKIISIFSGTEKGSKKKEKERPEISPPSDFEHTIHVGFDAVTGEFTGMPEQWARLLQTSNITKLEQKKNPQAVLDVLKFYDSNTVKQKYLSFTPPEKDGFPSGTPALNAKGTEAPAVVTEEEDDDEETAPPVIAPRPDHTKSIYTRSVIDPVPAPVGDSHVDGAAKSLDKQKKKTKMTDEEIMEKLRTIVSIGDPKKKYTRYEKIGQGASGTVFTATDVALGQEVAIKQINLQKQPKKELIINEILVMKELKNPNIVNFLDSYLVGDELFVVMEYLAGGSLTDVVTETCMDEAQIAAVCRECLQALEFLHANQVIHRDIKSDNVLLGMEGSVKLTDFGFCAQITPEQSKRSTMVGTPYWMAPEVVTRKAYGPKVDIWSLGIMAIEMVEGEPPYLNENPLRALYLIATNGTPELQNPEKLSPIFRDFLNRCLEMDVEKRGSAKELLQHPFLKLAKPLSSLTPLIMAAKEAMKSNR

MKNK2 (human) = MKNK2 (human) (UniProt Q9HBH9)
MKNK2 (human), sequence (Q9HBH9 whole entry, looked up): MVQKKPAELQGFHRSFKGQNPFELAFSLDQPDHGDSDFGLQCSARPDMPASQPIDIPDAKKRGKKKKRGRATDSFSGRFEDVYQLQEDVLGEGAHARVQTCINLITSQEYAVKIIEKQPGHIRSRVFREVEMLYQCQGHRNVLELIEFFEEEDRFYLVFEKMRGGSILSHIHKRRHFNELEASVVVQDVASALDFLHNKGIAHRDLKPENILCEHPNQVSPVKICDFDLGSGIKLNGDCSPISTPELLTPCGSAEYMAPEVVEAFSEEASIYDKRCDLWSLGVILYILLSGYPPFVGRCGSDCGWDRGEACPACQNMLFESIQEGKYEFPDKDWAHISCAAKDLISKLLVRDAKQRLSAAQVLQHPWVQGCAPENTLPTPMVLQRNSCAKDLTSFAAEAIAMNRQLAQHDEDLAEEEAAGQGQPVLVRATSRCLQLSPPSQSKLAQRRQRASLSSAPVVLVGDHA

FLT1 (human) = FLT1 (human) (UniProt P17948)
KDR (human) = KDR (human) (UniProt P35968)
TYRO3 (human) = TYRO3 (human) (UniProt Q06418)
MERTK (human) = MERTK (human) (UniProt Q12866)
CIT (human) = CIT (human) (UniProt O14578)
CIT (human), sequence (O14578 whole entry, looked up): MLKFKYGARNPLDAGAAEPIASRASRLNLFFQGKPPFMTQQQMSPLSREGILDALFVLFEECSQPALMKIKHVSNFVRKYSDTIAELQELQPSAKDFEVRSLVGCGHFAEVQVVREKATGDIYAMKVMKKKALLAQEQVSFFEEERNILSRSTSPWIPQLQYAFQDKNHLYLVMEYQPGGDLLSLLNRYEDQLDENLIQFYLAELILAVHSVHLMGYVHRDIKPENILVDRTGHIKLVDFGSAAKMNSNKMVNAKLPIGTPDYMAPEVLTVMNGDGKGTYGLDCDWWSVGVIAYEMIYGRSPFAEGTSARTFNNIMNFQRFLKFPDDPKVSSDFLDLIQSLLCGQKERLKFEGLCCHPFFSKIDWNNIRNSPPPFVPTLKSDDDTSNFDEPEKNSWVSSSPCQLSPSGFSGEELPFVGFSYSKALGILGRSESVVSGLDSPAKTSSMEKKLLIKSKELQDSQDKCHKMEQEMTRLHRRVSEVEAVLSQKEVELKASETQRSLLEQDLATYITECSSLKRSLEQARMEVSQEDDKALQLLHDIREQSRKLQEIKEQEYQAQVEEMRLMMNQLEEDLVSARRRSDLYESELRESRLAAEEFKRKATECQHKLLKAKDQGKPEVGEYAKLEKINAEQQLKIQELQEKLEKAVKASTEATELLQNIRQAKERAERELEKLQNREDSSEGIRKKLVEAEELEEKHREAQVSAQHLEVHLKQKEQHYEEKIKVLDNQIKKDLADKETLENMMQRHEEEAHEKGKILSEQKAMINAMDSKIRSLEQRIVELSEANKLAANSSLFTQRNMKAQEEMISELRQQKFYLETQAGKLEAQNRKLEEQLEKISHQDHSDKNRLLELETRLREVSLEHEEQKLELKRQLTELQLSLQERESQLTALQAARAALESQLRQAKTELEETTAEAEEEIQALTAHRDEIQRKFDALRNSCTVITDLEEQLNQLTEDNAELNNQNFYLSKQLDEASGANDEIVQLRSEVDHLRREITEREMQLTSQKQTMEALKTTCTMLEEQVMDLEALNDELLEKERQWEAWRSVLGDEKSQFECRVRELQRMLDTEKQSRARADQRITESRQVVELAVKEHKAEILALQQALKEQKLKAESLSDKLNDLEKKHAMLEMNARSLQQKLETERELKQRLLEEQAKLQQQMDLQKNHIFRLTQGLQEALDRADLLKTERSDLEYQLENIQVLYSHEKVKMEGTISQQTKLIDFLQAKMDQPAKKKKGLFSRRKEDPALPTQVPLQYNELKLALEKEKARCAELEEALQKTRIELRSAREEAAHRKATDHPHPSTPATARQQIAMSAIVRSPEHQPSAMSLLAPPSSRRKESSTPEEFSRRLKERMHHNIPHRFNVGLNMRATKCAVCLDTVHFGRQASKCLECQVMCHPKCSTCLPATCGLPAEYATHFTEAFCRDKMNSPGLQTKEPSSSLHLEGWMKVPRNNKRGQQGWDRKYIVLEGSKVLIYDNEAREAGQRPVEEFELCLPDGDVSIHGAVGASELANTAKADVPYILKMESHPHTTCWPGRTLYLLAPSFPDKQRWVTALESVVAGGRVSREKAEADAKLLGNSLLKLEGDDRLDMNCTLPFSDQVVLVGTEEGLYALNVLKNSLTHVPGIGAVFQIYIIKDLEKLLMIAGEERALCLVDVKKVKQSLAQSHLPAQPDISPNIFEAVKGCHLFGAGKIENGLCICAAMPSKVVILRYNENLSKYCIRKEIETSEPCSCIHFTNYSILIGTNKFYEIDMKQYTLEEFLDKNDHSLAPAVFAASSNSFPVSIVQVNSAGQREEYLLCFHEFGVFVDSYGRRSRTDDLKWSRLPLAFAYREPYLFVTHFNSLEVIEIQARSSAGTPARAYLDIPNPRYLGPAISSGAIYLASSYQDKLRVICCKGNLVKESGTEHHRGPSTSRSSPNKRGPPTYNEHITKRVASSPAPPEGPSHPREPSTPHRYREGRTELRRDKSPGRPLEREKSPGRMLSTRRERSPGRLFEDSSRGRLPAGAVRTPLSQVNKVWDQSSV

DDR1 (human) = DDR1 (human) (UniProt Q08345)
CDK3 (human) = CDK3 (human) (UniProt Q00526)
RET (human) = RET (human) (UniProt P07949)
PDGFRA (human) = PDGFRA (human) (UniProt P16234)
PRKCQ (human) = PRKCQ (human) (UniProt Q04759)
EPHB2 (human) = EPHB2 (human) (UniProt P29323)
FGR (human) = FGR (human) (UniProt P09769)
CAMK2G (human) = CAMK2G (human) (UniProt Q13555)
TEC (human) = TEC (human) (UniProt P42680)
PAK4 (human) = PAK4 (human) (UniProt O96013)
HIPK2 (human) = HIPK2 (human) (UniProt Q9H2X6)

HCK (human), sequence (P08631 whole entry, looked up): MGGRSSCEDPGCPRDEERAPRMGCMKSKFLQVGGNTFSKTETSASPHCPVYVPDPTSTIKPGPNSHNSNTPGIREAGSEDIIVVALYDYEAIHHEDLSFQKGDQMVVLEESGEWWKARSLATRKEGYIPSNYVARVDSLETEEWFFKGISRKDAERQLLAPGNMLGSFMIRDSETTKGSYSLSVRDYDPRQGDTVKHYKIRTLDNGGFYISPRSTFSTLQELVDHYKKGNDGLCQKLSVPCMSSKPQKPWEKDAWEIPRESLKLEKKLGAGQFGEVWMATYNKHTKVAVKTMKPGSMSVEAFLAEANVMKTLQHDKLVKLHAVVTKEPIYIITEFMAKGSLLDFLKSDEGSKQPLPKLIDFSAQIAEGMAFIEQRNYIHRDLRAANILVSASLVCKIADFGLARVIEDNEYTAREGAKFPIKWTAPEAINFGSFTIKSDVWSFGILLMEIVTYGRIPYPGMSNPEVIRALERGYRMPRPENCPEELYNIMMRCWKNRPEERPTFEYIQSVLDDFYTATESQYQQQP
MAPKAPK5 (human), sequence (Q8IW41 whole entry, looked up): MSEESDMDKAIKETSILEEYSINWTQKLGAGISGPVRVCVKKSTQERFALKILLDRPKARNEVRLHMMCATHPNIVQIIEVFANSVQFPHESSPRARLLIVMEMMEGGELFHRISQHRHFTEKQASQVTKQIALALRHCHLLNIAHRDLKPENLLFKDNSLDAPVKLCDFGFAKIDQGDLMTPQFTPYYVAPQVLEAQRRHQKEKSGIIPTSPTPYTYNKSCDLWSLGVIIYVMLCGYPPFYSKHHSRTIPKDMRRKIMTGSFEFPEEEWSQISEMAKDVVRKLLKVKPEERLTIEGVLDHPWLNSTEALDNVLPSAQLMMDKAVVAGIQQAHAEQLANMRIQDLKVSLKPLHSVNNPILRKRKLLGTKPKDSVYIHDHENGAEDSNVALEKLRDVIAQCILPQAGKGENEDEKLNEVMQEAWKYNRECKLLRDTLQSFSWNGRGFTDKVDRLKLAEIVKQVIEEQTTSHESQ

## Cc1ccc(Nc2nccc(N(C)c3ccc4c(C)n(C)nc4c3)n2)cc1S(N)(=O)=O
SPHK2 (human); compound 0.02 µM
  inhibition: 4.3%
SPHK2 (human); compound 0.2 µM
  inhibition: -6.2%
TNK1 (human); compound 0.02 µM
  inhibition: 1.8%
TNK1 (human); compound 0.2 µM
  inhibition: 12.2%
MAPKAPK5 (human); compound 0.02 µM
  inhibition: 3.2%
MAPKAPK5 (human); compound 0.2 µM
  inhibition: 4.8%
NUAK2 (human); compound 0.02 µM
  inhibition: -16.5%
NUAK2 (human); compound 0.2 µM
  inhibition: 6.3%
INSR (human); compound 0.02 µM
  inhibition: 0.3%
INSR (human); compound 0.2 µM
  inhibition: 4.5%
CDC7 (human); compound 0.02 µM
  inhibition: -1.5%
CDC7 (human); compound 0.2 µM
  inhibition: -3.3%
HCK (human); compound 0.02 µM
  inhibition: 2.6%
HCK (human); compound 0.2 µM
  inhibition: 25.1%
PLK1 (human); compound 0.02 µM
  inhibition: -0.7%
PLK1 (human); compound 0.2 µM
  inhibition: -2.2%
BMX (human); compound 0.02 µM
  inhibition: 6.9%
BMX (human); compound 0.2 µM
  inhibition: 0.9%
MKNK1 (human); compound 0.02 µM
  inhibition: 6.1%
MKNK1 (human); compound 0.2 µM
  inhibition: 3.1%
MARK4 (human); compound 0.02 µM
  inhibition: -4.1%
MARK4 (human); compound 0.2 µM
  inhibition: -6.3%
YES1 (human); compound 0.02 µM
  inhibition: 13.3%
YES1 (human); compound 0.2 µM
  inhibition: 44.3%
PAK7 (human); compound 0.02 µM
  inhibition: 9%
PAK7 (human); compound 0.2 µM
  inhibition: 1.3%
MAPK7 (human); compound 0.02 µM
  inhibition: -7.8%
MAPK7 (human); compound 0.2 µM
  inhibition: -7.6%
PRKCE (human); compound 0.02 µM
  inhibition: 5.8%
PRKCE (human); compound 0.2 µM
  inhibition: -8.2%
EPHA5 (human); compound 0.02 µM
  inhibition: -2.7%
EPHA5 (human); compound 0.2 µM
  inhibition: 4.7%
PAK2 (human); compound 0.02 µM
  inhibition: 5.5%
PAK2 (human); compound 0.2 µM
  inhibition: 2%
MKNK2 (human); compound 0.02 µM
  inhibition: 2.7%
MKNK2 (human); compound 0.2 µM
  inhibition: 1.5%
FLT1 (human); compound 0.02 µM
  inhibition: 66.5%
FLT1 (human); compound 0.2 µM
  inhibition: 99.8%
KDR (human); compound 0.02 µM
  inhibition: 81.6%
KDR (human); compound 0.2 µM
  inhibition: 99.2%
TYRO3 (human); compound 0.02 µM
  inhibition: 2.3%
TYRO3 (human); compound 0.2 µM
  inhibition: 10.6%
MERTK (human); compound 0.02 µM
  inhibition: 3%
MERTK (human); compound 0.2 µM
  inhibition: 15.6%
CIT (human); compound 0.02 µM
  inhibition: -2.3%
CIT (human); compound 0.2 µM
  inhibition: 0.3%
DDR1 (human); compound 0.02 µM
  inhibition: 19.6%
DDR1 (human); compound 0.2 µM
  inhibition: 80.9%
CDK3 (human); compound 0.02 µM
  inhibition: -2.4%
CDK3 (human); compound 0.2 µM
  inhibition: -4.3%
RET (human); compound 0.02 µM
  inhibition: 32.3%
RET (human); compound 0.2 µM
  inhibition: 82.1%
PDGFRA (human); compound 0.02 µM
  inhibition: 65.6%
PDGFRA (human); compound 0.2 µM
  inhibition: 95.6%
PRKCQ (human); compound 0.02 µM
  inhibition: 1.7%
PRKCQ (human); compound 0.2 µM
  inhibition: 0.5%
EPHB2 (human); compound 0.02 µM
  inhibition: -1.3%
EPHB2 (human); compound 0.2 µM
  inhibition: -2.7%
FGR (human); compound 0.02 µM
  inhibition: 18.8%
FGR (human); compound 0.2 µM
  inhibition: 54.2%
CAMK2G (human); compound 0.02 µM
  inhibition: 1.9%
CAMK2G (human); compound 0.2 µM
  inhibition: 2%
TEC (human); compound 0.02 µM
  inhibition: 4.8%
TEC (human); compound 0.2 µM
  inhibition: 19.7%
PAK4 (human); compound 0.02 µM
  inhibition: 0.9%
PAK4 (human); compound 0.2 µM
  inhibition: 8%
HIPK2 (human); compound 0.02 µM
  inhibition: 1.4%
HIPK2 (human); compound 0.2 µM
  inhibition: 3.3%
